Test results reported in patent US10227331B2 (priority 2015, dated 2019).
Like-named read-outs stand apart in the source and are kept apart here.

What was measured:
[1] = tested on: Serratia marcescens expressing IMP-1 (CL5741); format: cell-based; settings: with imipenem 1 μg/ml; 95% inhibition of bacterial growth
Procedure, shortened: (§1)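 Clinical strains grown overnight on blood agar, then diluted 1:100 in 1.1× CAMHB and exposed to test compound with imipenem at 1 μg/ml. Incubation was 22–24 h at 35° C; growth was read by absorbance to find the compound concentration restoring imipenem susceptibility.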

[2] = tested on: Escherichia coli expressing NDM-1 (CLB30005, CLB30016); format: cell-based; settings: with imipenem 1 μg/ml; 95% inhibition of bacterial growth
Procedure, shortened: as §1

[3] = tested on: Klebsiella pneumoniae expressing VIM-1 (IHMA599644); format: cell-based; settings: with imipenem 1 μg/ml; 95% inhibition of bacterial growth
Procedure, shortened: as §1

NDM-1 = NDM-1 (Klebsiella pneumoniae, UniProt C7C422); assay: biochemical; format: biochemical; settings: CCF2-FA substrate, 2 hours at 25° C; read-out: NDM-1 IC50
Sequence of NDM-1 (C7C422 whole entry, looked up, species assumed): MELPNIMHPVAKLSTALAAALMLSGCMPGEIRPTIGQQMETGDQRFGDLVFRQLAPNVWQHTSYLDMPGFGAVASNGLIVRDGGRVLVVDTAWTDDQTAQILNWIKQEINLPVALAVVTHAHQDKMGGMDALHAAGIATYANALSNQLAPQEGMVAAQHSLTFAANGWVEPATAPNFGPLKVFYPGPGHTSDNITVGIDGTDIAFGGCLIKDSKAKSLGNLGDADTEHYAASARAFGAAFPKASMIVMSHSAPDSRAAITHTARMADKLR
Procedure, shortened: (§2)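 Class B activity is measured in the presence of compound by fluorescence with CCF2-FA after a 2-hour incubation at 25° C. IC50 is taken from a 4-parameter fit of semi-logarithmic dose-response data.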

IMP-1 = IMP-1 (Serratia marcescens, UniProt P52699); assay: biochemical; format: biochemical
Sequence of IMP-1 (P52699 whole entry, looked up, species assumed): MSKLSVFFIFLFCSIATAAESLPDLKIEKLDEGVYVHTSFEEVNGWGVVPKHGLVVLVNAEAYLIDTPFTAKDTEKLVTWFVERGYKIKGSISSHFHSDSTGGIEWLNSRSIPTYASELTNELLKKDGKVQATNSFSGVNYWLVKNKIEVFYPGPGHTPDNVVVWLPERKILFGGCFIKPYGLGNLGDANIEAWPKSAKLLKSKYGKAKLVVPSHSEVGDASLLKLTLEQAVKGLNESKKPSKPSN
Procedure, shortened: as §2

[4] = tested on: P. aeruginosa expressing IMP-1, efflux+ (MB9798); format: cell-based, Pseudomonas aeruginosa; settings: for P. aeruginosa expressing IMP-1, efflux+ (MB9798) MITC95: imipenem at 2 μg/mL, in the presence of a class A, C, D serine β-lactamase inhibitor closely related to relebactam; for Efflux ratio: ratio MITC95 PA_9798/MITC95 PA_9799
Source text: (§3) The strain background is Pseudomonas aeruginosa PAO1.

VIM-1 = VIM-1 (Pseudomonas aeruginosa (strain ATCC 15692 / DSM 22644 / CIP 104116 / JCM 14847 / LMG 12228 / 1C / PRS 101 / PAO1), UniProt A0A0F7KYQ8); assay: biochemical; settings: CCF2-FA substrate, 2 hours at 25° C
Procedure, shortened: as §2

[5] = tested on: P. aeruginosa expressing IMP-1, efflux− (MB9799); assay: Efflux: concentration of MBL inhibitor which restores susceptibility to imipenem; format: cell-based, Pseudomonas aeruginosa; settings: imipenem at 2 μg/mL, in the presence of a class A, C, D serine β-lactamase inhibitor closely related to relebactam
Source text: as §3

[6] = CCF2-FA substrate, 2 hours at 25° C, read-out: IMP-1 IC50

| SMILES | Serratia marcescens expressing IMP-1 (CL5741) MITC95 [1] [µM] | Escherichia coli expressing NDM-1 (CLB30016) MITC95 [2] [µM] | Klebsiella pneumoniae expressing VIM-1 (IHMA599644) MITC95 [3] [µM] | IC50 (NDM-1) [nM] | IC50 (IMP-1; [6]) [nM] | P. aeruginosa expressing IMP-1, efflux+ (MB9798) MITC95 [4] [µM] | Efflux ratio [4] | IC50 (VIM-1) [nM] | P. aeruginosa expressing IMP-1, efflux− (MB9799) MITC95 [5] [µM] | IC50 (IMP-1) [nM] |
| --- | --- | --- | --- | --- | --- | --- | --- | --- | --- | --- |
| Nc1nc2cccc(-c3ccc(S(=O)(=O)[C@@H]4CCNC4)c(S(N)(=O)=O)c3-c3nn[nH]n3)c2[nH]1 [Example 181, 3-(2-amino-3H-benzo[d]imidazol-4-yl)-6-((R)-pyrrolidin-3-ylsulfonyl)-2-(2H-tetrazol-5-yl)benzenesulfonamide] | 0.6875 | 0.3203 | 0.8542 | 0.149 | 0.807 | 0.6875 | 1.00 | 0.42 | 0.6875 |  |
| Nc1nc2cccc(-c3ccc(S(=O)(=O)[C@H]4CCNC4)c(S(N)(=O)=O)c3-c3nn[nH]n3)c2[nH]1 [Example 182, 3-(2-amino-3H-benzo[d]imidazol-4-yl)-6-((S)-pyrrolidin-3-ylsulfonyl)-2-(2H-tetrazol-5-yl)benzenesulfonamide] | 0.6406 | 0.25 | 0.8906 | 0.154 | 0.979 | 0.6406 | 1.00 | 0.21 | 0.6406 |  |
| Nc1nc2c(-c3ccc(S(=O)(=O)[C@@H]4CCNC4)c(S(N)(=O)=O)c3-c3nn[nH]n3)cccc2s1 [Example 183, 3-(2-aminobenzo[d]thiazol-4-yl)-6((R)-pyrrolidin-3-ylsulfonyl)-2-(2H-tetrazol-5-yl)benzenesulfonamide] | 1.563 | 0.7813 | 1.563 | 0.122 | 0.157 | 0.7813 | 1.00 | 0.294 | 0.7813 |  |
| Nc1nc2c(-c3ccc(S(=O)(=O)[C@H]4CCNC4)c(S(N)(=O)=O)c3-c3nn[nH]n3)cccc2s1 [Example 184, 3-(2-aminobenzo[d]thiazol-4-yl)-6-((S)-pyrrolidin-3-ylsulfonyl)-2-(2H-tetrazol-5-yl)benzenesulfonamide] | 0.7813 | 0.7813 | 1.563 | 0.0925 | 0.243 | 0.7813 | 1.00 | 0.262 | 0.7813 |  |
| NS(=O)(=O)c1c(S(=O)(=O)[C@@H]2CCNC2)ccc(-c2cccc3cn[nH]c23)c1-c1nn[nH]n1 [Example 185, 3-(1H-indazol-7-yl)-6-((R)-pyrrolidin-3-ylsulfonyl)-2-(2H-tetrazol-5-yl)benzenesulfonamide] | 1.563 | 0.7813 | 3.125 | 0.657 | 0.466 | 1.563 | 2.00 | 0.55 | 0.7813 |  |
| NS(=O)(=O)c1c(S(=O)(=O)[C@H]2CCNC2)ccc(-c2cccc3cn[nH]c23)c1-c1nn[nH]n1 [Example 186, 3-(1H-indazol-7-yl)-6-((S)-pyrrolidin-3-ylsulfonyl)-2-(2H-tetrazol-5-yl)benzenesulfonamide] | 1.563 | 1.563 | 1.563 | 0.246 | 0.541 | 1.563 | 2.00 | 0.228 | 0.7813 |  |
| Cc1ccc(-c2ccc(S(=O)(=O)[C@@H]3CCNC3)c(S(N)(=O)=O)c2-c2nn[nH]n2)c2nc(N)sc12 [Example 187, 3-(2-amino-7-methylbenzo[d]thiazol-4-yl)-6-((R)-pyrrolidin-3-ylsulfonyl)-2-(2H-tetrazol-5-yl)benzenesulfonamide] | 0.7813 | 0.7813 | 1.563 | 0.0691 | 0.0757 | 1.563 | 2.00 | 0.159 | 0.7813 |  |
| Cc1ccc(-c2ccc(S(=O)(=O)[C@H]3CCNC3)c(S(N)(=O)=O)c2-c2nn[nH]n2)c2nc(N)sc12 [Example 188, 3-(2-amino-7-methylbenzo[d]thiazol-4-yl)-6-((S)-pyrrolidin-3-ylsulfonyl)-2-(2H-tetrazol-5-yl)benzenesulfonamide] | 0.7813 | 1.563 | 1.563 | 0.0435 | 0.109 | 1.563 | 2.00 | 0.113 | 0.7813 |  |
| Nc1nc2c(-c3ccc(S(=O)(=O)[C@@H]4CCNC4)c(S(N)(=O)=O)c3-c3nn[nH]n3)cccc2o1 [Example 189, 3-(2-aminobenzo[d]oxazol-4-yl)-6-((R)-pyrrolidin-3-ylsulfonyl)-2-(2H-tetrazol-5-yl)benzenesulfonamide] | 1.563 | 1.563 | 1.563 | 0.219 | 0.332 | 0.7813 | 1.00 | 0.419 | 0.7813 |  |
| Nc1nc2c(-c3ccc(S(=O)(=O)[C@H]4CCNC4)c(S(N)(=O)=O)c3-c3nn[nH]n3)cccc2o1 [Example 190, 3-(2-aminobenzo[d]oxazol-4-yl)-6-((S)-pyrrolidin-3-ylsulfonyl)-2-(2H-tetrazol-5-yl)benzenesulfonamide] | 1.563 | 1.563 | 3.125 | 0.113 |  | 1.563 | 1.00 | 0.169 | 1.563 | 0.352 |
| CS(=O)(=O)c1ccc(-c2cccc3cn[nH]c23)c(-c2nn[nH]n2)c1S(N)(=O)=O [Example 191, 3-(1H-indazol-7-yl)-6-(methylsulfonyl)-2-(2H-tetrazol-5-yl)benzenesulfonamide] | 3.125 | 3.125 | 6.25 | 0.436 | 0.21 | 25 | 15.99 | 0.298 | 1.563 |  |
| Cn1c(N)nc2c(-c3ccc(S(C)(=O)=O)c(S(N)(=O)=O)c3-c3nn[nH]n3)cccc21 [Example 192, 3-(2-amino-1-methyl-1H-benzo[d]imidazol-4-yl)-6-(methylsulfonyl)-2-(2H-tetrazol-5-yl)benzenesulfonamide] | 1.563 | 0.7813 | 3.125 | 1 | 0.552 | 3.125 | 4.00 | 0.194 | 0.7813 |  |
| Cc1ccc(-c2ccc(S(C)(=O)=O)c(S(N)(=O)=O)c2-c2nn[nH]n2)c2nc(N)sc12 [Example 193, 3-(2-amino-7-methylbenzo[d]thiazol-4-yl)-6-(methylsulfonyl)-2-(2H-tetrazol-5-yl)benzenesulfonamide] | 1.563 | 3.125 | 6.25 | 0.137 | 0.0941 | 6.25 | 4.00 | 0.106 | 1.563 |  |
